Results as given in patent US20090258883A1, “1H-Indole-Pyridinecarboxamide and 1H-Indole-Piperidinecarboxamide Compounds” (LES LABORATOIRES SERVIER, priority 2005, published 2009).
Marks after values point to notes of the source that are not given here.

Legend:
[1] = test system: tyrosine hydroxylase (TH) protein; experiment: Induction of tyrosine hydroxylase (TH) in LC, SN and VTA of the mouse brain; type: in vivo, Balb/C mouse; settings: for amount of TH in LC section 1: LC section 1 (posterior-to-anterior); for amount of TH in LC section 1 / amount of TH, LC, total: i.p. 20 mg/kg; for amount of TH in LC section 1 / amount of TH in LC section 2 / amount of TH in LC section 3 / amount of TH in LC section 4 / amount of TH in LC section 5 / amount of TH in LC section 6 / amount of TH in LC section 7 / amount of TH in LC section 8 / amount of TH in LC section 9 / amount of TH in LC section 10 / amount of TH in LC section 11 / amount of TH, LC, total: three days after single injection; for amount of TH in LC section 1 / amount of TH in LC section 2 / amount of TH in LC section 3 / amount of TH in LC section 4 / amount of TH in LC section 5 / amount of TH in LC section 6 / amount of TH in LC section 7 / amount of TH in LC section 8 / amount of TH in LC section 9 / amount of TH in LC section 10 / amount of TH in LC section 11 / amount of TH, LC, total / TH induction in the SN / TH induction in the VTA: relative to mean value of control group; for amount of TH in LC section 2: LC section 2, i.p. 20 mg/kg; for amount of TH in LC section 3: LC section 3, i.p. 20 mg/kg; for amount of TH in LC section 4: LC section 4, i.p. 20 mg/kg; for amount of TH in LC section 5: LC section 5, i.p. 20 mg/kg; for amount of TH in LC section 6: LC section 6, i.p. 20 mg/kg; for amount of TH in LC section 7: LC section 7, i.p. 20 mg/kg; for amount of TH in LC section 8: LC section 8, i.p. 20 mg/kg; for amount of TH in LC section 9: LC section 9, i.p. 20 mg/kg; for amount of TH in LC section 10: LC section 10, i.p. 20 mg/kg; for amount of TH in LC section 11: LC section 11, i.p. 20 mg/kg; for TH induction in the SN: substantia nigra; for TH induction in the SN / TH induction in the VTA: single i.p. injection; for TH induction in the VTA: ventral tegmental area
Text: A search is made among the compounds for those which are capable of bringing about an increase in the tyrosine hydroxylase (TH) protein in the locus coeruleus (LC), substantia nigra (SN) and ventral tegmental area (VTA) of the brain of the Balb/C mouse. The animals used are consanguinal male mice of the pure Balb/C strain (Charles River Laboratories) aged 6 weeks at the time of treatment.
The mice are given a single injection, by the intraperitoneal route, of the compound under test, dissolved in 0.04M HCl solution (corresponding control: 0.04M HCl), if the compound is sufficiently soluble, or in olive oil 90%/DMSO 10% (corresponding control: olive oil 90%/DMSO 10%) for compounds that are insoluble in an aqueous medium. The volume injected is 100 μl. The test groups comprise 10 animals.
Three days after the injection of each compound, all the animals are sacrificed by decapitation. The brains are removed and then frozen in an isopentane solution at −30° C. for 45 seconds and subsequently stored at −80° C.
Serial coronal sections 20 microns thick are then taken using a cryomicrotome. Each structure of interest is then sampled along the posterior-anterior axis of the brain by taking sections at 80-micron spacings in the case of the LC and at 80- or 160-micron spacings in the case of the VTA and SN. The limits of those structures are those described in the atlas of Franklin and Paxinos. The total proteins of each of those sections are transferred by direct collection of the sections to a nitrocellulose filter (Millipore). The amounts of TH present in each sample are measured by immunochemistry, fluorimetric detection and image analysis.

[2] = test system: confluent endothelial cells from bovine capillaries; experiment: Predicted crossing of the blood-brain barrier (BBB); type: in vitro ADME; parameters: key: high; intermediate; low; settings: 20 μM in upper compartment, filter with bovine capillary endothelial cells, 10-60 minutes, LC-MS-MS
Procedure: The substances are incubated at 20 μM in the upper compartment of a double container, the upper compartment being separated from the lower compartment either solely by a polycarbonate filter or by the same filter covered with confluent endothelial cells from bovine capillaries. Evaluation of the permeability kinetics is carried out by means of LC-MS-MS quantification of the unchanged substance in the lower compartment after 10, 20, 30, 40 and 60 minutes.
The results are given in the form of the categories: high, intermediate, low.

[3] = molecular target: 5HT receptors (type 5HT2A) (Homo sapiens, UniProt P28223); experiment: Affinity for receptors, displacement of labelled specific ligand: 5HT2A; type: binding; settings: for inhibition at 10 µM: concentration 10^−5 M; for inhibition at 0.1 µM: concentration 10^−7 M
Sequence of 5HT receptors (type 5HT2A) (P28223 whole entry): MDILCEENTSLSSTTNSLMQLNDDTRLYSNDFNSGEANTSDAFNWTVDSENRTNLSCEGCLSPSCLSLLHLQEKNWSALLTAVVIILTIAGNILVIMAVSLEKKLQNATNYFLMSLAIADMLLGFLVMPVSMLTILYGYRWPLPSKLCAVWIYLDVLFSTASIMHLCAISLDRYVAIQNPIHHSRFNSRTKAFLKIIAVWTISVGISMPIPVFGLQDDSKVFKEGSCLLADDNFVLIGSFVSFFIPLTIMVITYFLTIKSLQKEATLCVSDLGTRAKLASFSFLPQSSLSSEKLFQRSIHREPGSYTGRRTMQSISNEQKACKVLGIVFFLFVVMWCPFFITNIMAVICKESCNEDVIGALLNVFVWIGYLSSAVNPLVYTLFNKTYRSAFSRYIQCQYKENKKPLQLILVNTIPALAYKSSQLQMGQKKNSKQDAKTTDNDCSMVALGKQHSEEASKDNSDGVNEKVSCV

[4] = molecular target: dopaminergic receptors (type D1) (Homo sapiens, UniProt P21728); experiment: Affinity for receptors, displacement of labelled specific ligand: D1; type: binding; settings: for inhibition at 10 µM: concentration 10^−5 M; for inhibition at 0.1 µM: concentration 10^−7 M
Sequence of dopaminergic receptors (type D1) (P21728 whole entry): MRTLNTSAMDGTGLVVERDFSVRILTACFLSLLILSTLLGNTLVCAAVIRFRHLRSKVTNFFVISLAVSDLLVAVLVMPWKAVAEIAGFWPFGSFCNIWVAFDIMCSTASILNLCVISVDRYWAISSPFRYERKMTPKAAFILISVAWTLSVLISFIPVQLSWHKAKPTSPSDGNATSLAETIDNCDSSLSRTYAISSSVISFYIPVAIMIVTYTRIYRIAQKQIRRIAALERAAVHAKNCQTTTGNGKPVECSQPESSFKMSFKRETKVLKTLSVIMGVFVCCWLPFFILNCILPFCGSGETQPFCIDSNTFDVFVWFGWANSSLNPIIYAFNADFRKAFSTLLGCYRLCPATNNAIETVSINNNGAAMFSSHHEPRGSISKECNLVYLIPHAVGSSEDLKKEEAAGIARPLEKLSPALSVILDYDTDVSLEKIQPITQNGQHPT

[5] = molecular target: dopaminergic receptors (type D2) (Homo sapiens, UniProt P14416); experiment: Affinity for receptors, displacement of labelled specific ligand: D2; type: binding; settings: for inhibition at 10 µM: concentration 10^−5 M; for inhibition at 0.1 µM: concentration 10^−7 M
Sequence of dopaminergic receptors (type D2) (P14416 whole entry): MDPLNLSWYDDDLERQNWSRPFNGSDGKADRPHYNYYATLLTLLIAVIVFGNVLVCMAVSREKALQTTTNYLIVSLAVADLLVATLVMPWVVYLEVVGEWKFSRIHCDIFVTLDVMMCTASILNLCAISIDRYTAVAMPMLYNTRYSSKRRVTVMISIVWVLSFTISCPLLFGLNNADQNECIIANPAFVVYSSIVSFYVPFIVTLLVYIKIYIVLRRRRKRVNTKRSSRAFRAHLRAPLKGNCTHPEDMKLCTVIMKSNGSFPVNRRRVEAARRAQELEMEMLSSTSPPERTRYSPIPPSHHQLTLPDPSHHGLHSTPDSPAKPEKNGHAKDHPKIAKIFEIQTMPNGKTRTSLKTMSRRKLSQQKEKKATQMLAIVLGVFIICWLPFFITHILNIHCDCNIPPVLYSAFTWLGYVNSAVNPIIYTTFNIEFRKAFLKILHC

muscarinic (M) receptors = experiment: Affinity for receptors, displacement of labelled specific ligand: muscarinic; type: binding; settings: concentration 10^−5 M
Procedure: (§1) The affinity for receptors is determined according to customary methods of relations between the specific ligand and the receptor, which may be of animal origin or a human recombinant. The affinity was determined by the method of displacement of the labelled specific ligand by the compound under test and expressed by the dissociation constant KI. The receptor affinity was accordingly studied for 28 conventional receptors.

[6] = test system: sigma (σ) receptors (ligand: haloperidol); experiment: Affinity for receptors, displacement of labelled specific ligand: sigma; type: binding
Procedure: as §1

[7] = Predicted metabolic stability, mouse hepatic microsomes; type: in vitro ADME; settings: 10^−7 M, mouse hepatic microsomes 0.33 mg of prot/ml, NADPH
Procedure: (§2) The predicted metabolic stability is tested by incubation of the compounds at a concentration of 10^−7M in the presence of mouse, rat or human hepatic microsomes (0.33 mg of prot/ml). After addition of NADPH (nicotinamide adenine dinucleotide phosphate, reduced form), samples are taken at 0, 5, 15, 30 and 60 minutes. The enzymatic reaction is stopped using methanol (V/V). The protein is precipitated by centrifugation and the supernatant is analysed by LC-MS-MS.

[8] = Predicted metabolic stability, human hepatic microsomes; type: in vitro ADME; settings: 10^−7 M, human hepatic microsomes 0.33 mg of prot/ml, NADPH
Procedure: as §2

Structure (SMILES) | amount of TH in LC section 1 [1] | amount of TH in LC section 2 [1] | amount of TH in LC section 3 [1] | amount of TH in LC section 4 [1] | amount of TH in LC section 5 [1] | amount of TH in LC section 6 [1] | amount of TH in LC section 7 [1] | amount of TH in LC section 8 [1] | amount of TH in LC section 9 [1] | amount of TH in LC section 10 [1] | amount of TH in LC section 11 [1] | amount of TH, LC, total [1] | TH induction in the SN [1] | TH induction in the VTA [1] | inhibition at 10 µM [3] | inhibition at 0.1 µM [3] | inhibition at 10 µM [4] | inhibition at 0.1 µM [4] | inhibition at 10 µM [5] | inhibition at 0.1 µM [5] | also measured
CN1CCC=C(C(=O)Nn2ccc3cc(F)ccc32)C1 [Example 7, N-(5-fluoro-1H-indol-1-yl)-1-methyl-1,2,5,6-tetrahydropyridine-3-carboxamide] | 113% | 139* % | 112% | 119% | 138** % | 122% | 141** % | 131* % | 96% | 125% | 106% | 123** % | 88* % | 94% | < 10% | < 10% | < 10% | < 10% | < 10% | < 10% | TH induction in the LC, in words [1]: induce TH only in the LC; degree of crossing of the BBB (category) [2]: high
C=CCN1CCCC(C(=O)Nn2ccc3cc(Cl)ccc32)C1 (centres unmarked) [Example 12, 1-Allyl-N-(5-chloro-1H-indol-1-yl)piperidine-3-carboxamide] | 57% | 70% | 80% | 110% | 114% | 92% | 95% | 82% | 98% | 94% | 26% | 90% | 122* % | 95% | < 10% | < 10% | < 10% | < 10% | < 10% | < 10% | TH induction in the LC, in words [1]: without increasing expression of the protein; TH induction in the SN, in words ([1]; SN): induce TH in the SN; TH induction in the VTA, in words ([1]; VTA): without increasing expression of the protein; % inhibition M (muscarinic (M) receptors): 51%; % inhibition σ ([6]; concentration 10^−5 M): 85%; % inhibition σ ([6]; concentration 10^−7 M): 18%
CN1CCC=C(C(=O)NN2CCc3ccccc32)C1 [Example 15, N-(2,3-dihydro-1H-indol-1-yl)-1-methyl-1,2,5,6-tetrahydropyridine-3-carboxamide] |  |  |  |  |  |  |  |  |  |  |  |  | 91% | 88* % |  |  |  |  |  |  | 
CN(C)CCN1CCCC(C(=O)Nn2ccc3ccccc32)C1 (centres unmarked) [Example 22, 1-[2-(Dimethylamino)ethyl]-N-(1H-indol-1-yl)-3-piperidinecarboxamide] | 79% | 101% | 112% | 98% | 108% | 113% | 146** % | 120% | 135* % | 179** % | 145* % | 119** % |  |  |  |  |  |  |  |  | 
O=C(Nn1ccc2ccccc21)C1CCCN(CCN2CCCCC2)C1 (centres unmarked) [Example 24, N-(1H-indol-1-yl)-1-[2-(1-piperidyl)ethyl]-3-piperidinecarboxamide] | 165* % | 157* % | 120% | 127% | 145* % | 131** % | 139* % | 116% | 139% | 96% | 94% | 129** % |  |  |  |  |  |  |  |  | degree of crossing of the BBB (category) [2]: high
CN1CCN(CCN2CCCC(C(=O)Nn3ccc4ccccc43)C2)CC1 (centres unmarked) [Example 25, N-(1H-indol-1-yl)-1-[2-(4-methyl-1-piperazinyl)ethyl]-3-piperidine-carboxamide] |  |  |  |  |  |  |  |  |  |  |  |  |  |  | 14% | 12% | < 10% | < 10% | < 10% | < 10% | % inhibition M (muscarinic (M) receptors): 27%; % inhibition σ ([6]; concentration 10^−5 M): 100%; % inhibition σ ([6]; concentration 10^−7 M): 17%; % metabolic stability predicted using hepatic microsomes, Mouse [7]: 85%; % metabolic stability predicted using hepatic microsomes, Human [8]: 63%
O=C(Nn1ccc2ccccc21)C1CCCN(CCN2CCN(CCO)CC2)C1 (centres unmarked) [Example 26, 1-{2-[4-(2-Hydroxyethyl)-1-piperazinyl]ethyl}-N-(1H-indol-1-yl)-3-piperidinecarboxamide] | 152* % | 98% | 136** % | 107% | 154** % | 133* % | 127* % | 96% | 132% | 110% | 89% | 121** % |  |  |  |  |  |  |  |  | 
